Test results as given in PubChem BioAssay (NCI).
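Method: 48-hour compound exposure of cells in 96-well plates, five concentrations, linear interpolation of endpoints. At the TGI there is no net growth.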

Assays:
Experiment in all cases: growth of human tumour cells (NCI), 48 h
SF-295 CNS = tested on: SF-295 CNS
A549 NSCLC = tested on: A549 NSCLC
NCI-H23 lung = tested on: NCI-H23 lung
HCT-116 colon = tested on: HCT-116 colon
DU-145 prostate = tested on: DU-145 prostate
HOP-62 NSCLC = tested on: HOP-62 NSCLC
T-47D breast = tested on: T-47D breast
HCT-15 colon = tested on: HCT-15 colon
U251 CNS = tested on: U251 CNS
HS 578T breast = tested on: HS 578T breast
UACC-62 melanoma = tested on: UACC-62 melanoma
K-562 leukemia = tested on: K-562 leukemia
MDA-MB-435 = tested on: MDA-MB-435
RXF 393 renal = tested on: RXF 393 renal
SF-268 CNS = tested on: SF-268 CNS
HCC-2998 colon = tested on: HCC-2998 colon
M14 melanoma = tested on: M14 melanoma
NCI-H460 lung = tested on: NCI-H460 lung
SNB-75 CNS = tested on: SNB-75 CNS
SF-539 CNS = tested on: SF-539 CNS
A498 renal = tested on: A498 renal
LOX IMVI melanoma = tested on: LOX IMVI melanoma
EKVX NSCLC = tested on: EKVX NSCLC
SW-620 colon = tested on: SW-620 colon
PC-3 prostate = tested on: PC-3 prostate
SNB-19 CNS = tested on: SNB-19 CNS
NCI-H522 lung = tested on: NCI-H522 lung
NCI/ADR-RES ovarian = tested on: NCI/ADR-RES ovarian
MDA-MB-231 breast = tested on: MDA-MB-231 breast
SK-MEL-28 melanoma = tested on: SK-MEL-28 melanoma
SN12C renal = tested on: SN12C renal
KM12 colon = tested on: KM12 colon
RPMI-8226 leukemia = tested on: RPMI-8226 leukemia
786-0 renal = tested on: 786-0 renal
HOP-92 NSCLC = tested on: HOP-92 NSCLC
UO-31 renal = tested on: UO-31 renal
CCRF-CEM leukemia = tested on: CCRF-CEM leukemia
HT29 colon = tested on: HT29 colon
SR leukemia = tested on: SR leukemia
MCF7 breast = tested on: MCF7 breast
MALME-3M melanoma = tested on: MALME-3M melanoma
OVCAR-8 ovarian = tested on: OVCAR-8 ovarian
TK-10 renal = tested on: TK-10 renal
ACHN renal = tested on: ACHN renal
SK-MEL-5 melanoma = tested on: SK-MEL-5 melanoma
CAKI-1 renal = tested on: CAKI-1 renal
UACC-257 melanoma = tested on: UACC-257 melanoma
MDA-N = tested on: MDA-N
OVCAR-3 ovarian = tested on: OVCAR-3 ovarian
COLO 205 colon = tested on: COLO 205 colon
NCI-H226 lung = tested on: NCI-H226 lung
BT-549 breast = tested on: BT-549 breast
SK-MEL-2 melanoma = tested on: SK-MEL-2 melanoma
MOLT-4 leukemia = tested on: MOLT-4 leukemia
OVCAR-5 ovarian = tested on: OVCAR-5 ovarian
SK-OV-3 ovarian = tested on: SK-OV-3 ovarian
OVCAR-4 ovarian = tested on: OVCAR-4 ovarian
IGROV1 ovarian = tested on: IGROV1 ovarian
HL-60(TB) leukemia = tested on: HL-60(TB) leukemia

Question: Which results are given for `CN(C)/C=N/S(=O)(=O)c1nn2c(C=O)c(-c3ccccc3)nc2s1`?
Answer: TGI (SF-295 CNS): > 100 µM; TGI (A549 NSCLC): > 82.4 µM; TGI (NCI-H23 lung): > 83 µM; TGI (HCT-116 colon): 13.1 µM; TGI (DU-145 prostate): > 100 µM; TGI (HOP-62 NSCLC): > 100 µM; TGI (T-47D breast): 61.4 µM; TGI (HCT-15 colon): 45.6 µM; TGI (U251 CNS): > 31.6 µM; TGI (HS 578T breast): > 100 µM; TGI (UACC-62 melanoma): 54.4 µM; TGI (K-562 leukemia): > 61.7 µM; TGI (MDA-MB-435): > 100 µM; TGI (RXF 393 renal): 49 µM; TGI (SF-268 CNS): > 100 µM; TGI (HCC-2998 colon): > 56.5 µM; TGI (M14 melanoma): 14.8 µM; TGI (NCI-H460 lung): > 51.4 µM; TGI (SNB-75 CNS): > 100 µM; TGI (SF-539 CNS): > 100 µM; TGI (A498 renal): > 100 µM; TGI (LOX IMVI melanoma): > 89 µM; TGI (EKVX NSCLC): > 100 µM; TGI (SW-620 colon): 20.2 µM; TGI (PC-3 prostate): > 89 µM; TGI (SNB-19 CNS): > 100 µM; TGI (NCI-H522 lung): 15.8 µM; TGI (NCI/ADR-RES ovarian): > 76.6 µM; TGI (MDA-MB-231 breast): > 74.9 µM; TGI (SK-MEL-28 melanoma): 29.8 µM; TGI (SN12C renal): 49.7 µM; TGI (KM12 colon): > 79.7 µM; TGI (RPMI-8226 leukemia): 42.9 µM; TGI (786-0 renal): 21.3 µM; TGI (HOP-92 NSCLC): > 100 µM; TGI (UO-31 renal): 19.5 µM; TGI (CCRF-CEM leukemia): 9.8 µM; TGI (HT29 colon): 4.58 µM; TGI (SR leukemia): 21.3 µM; TGI (MCF7 breast): > 100 µM; TGI (MALME-3M melanoma): 35.6 µM; TGI (OVCAR-8 ovarian): > 53.4 µM; TGI (TK-10 renal): > 77.1 µM; TGI (ACHN renal): 21.1 µM; TGI (SK-MEL-5 melanoma): 27.9 µM; TGI (CAKI-1 renal): 8.68 µM; TGI (UACC-257 melanoma): > 63.3 µM; TGI (MDA-N): 52.5 µM; TGI (OVCAR-3 ovarian): 24.1 µM; TGI (COLO 205 colon): > 38.6 µM; TGI (NCI-H226 lung): > 57.4 µM; TGI (BT-549 breast): > 26.4 µM; TGI (SK-MEL-2 melanoma): > 100 µM; TGI (MOLT-4 leukemia): 32.1 µM; TGI (OVCAR-5 ovarian): > 100 µM; TGI (SK-OV-3 ovarian): > 100 µM; TGI (OVCAR-4 ovarian): > 89.9 µM

Question: `CCOc1ccccc1/C=C(/C#N)C(N)=O` was tested. Which TGI (SF-295 CNS) did it give?
Answer: > 100 µM

Question: And the TGI (A549 NSCLC)?
Answer: > 100 µM

Question: And the TGI (NCI-H23 lung)?
Answer: > 100 µM

Question: And the TGI (HCT-116 colon)?
Answer: > 100 µM

Question: And the TGI (DU-145 prostate)?
Answer: > 100 µM

Question: And the TGI (HOP-62 NSCLC)?
Answer: > 100 µM

Question: What about the TGI (T-47D breast) of the same compound?
Answer: > 100 µM

Question: And the TGI (IGROV1 ovarian)?
Answer: > 100 µM

Question: And the TGI (HCT-15 colon)?
Answer: > 100 µM

Question: What about the TGI (U251 CNS) of the same compound?
Answer: > 100 µM

Question: And the TGI (HS 578T breast)?
Answer: > 100 µM

Question: And the TGI (UACC-62 melanoma)?
Answer: > 100 µM

Question: What about the TGI (K-562 leukemia) of the same compound?
Answer: > 100 µM

Question: And the TGI (MDA-MB-435)?
Answer: 41.9 µM

Question: What about the TGI (RXF 393 renal) of the same compound?
Answer: > 100 µM

Question: What about the TGI (SF-268 CNS) of the same compound?
Answer: > 100 µM

Question: What about the TGI (M14 melanoma) of the same compound?
Answer: > 100 µM

Question: And the TGI (NCI-H460 lung)?
Answer: > 100 µM

Question: What about the TGI (HL-60(TB) leukemia) of the same compound?
Answer: > 100 µM

Question: What about the TGI (SNB-75 CNS) of the same compound?
Answer: > 100 µM

Question: And the TGI (SF-539 CNS)?
Answer: > 100 µM

Question: What about the TGI (A498 renal) of the same compound?
Answer: > 100 µM

Question: What about the TGI (LOX IMVI melanoma) of the same compound?
Answer: > 100 µM

Question: What about the TGI (EKVX NSCLC) of the same compound?
Answer: > 100 µM

Question: And the TGI (SW-620 colon)?
Answer: > 100 µM

Question: What about the TGI (PC-3 prostate) of the same compound?
Answer: > 100 µM

Question: And the TGI (SNB-19 CNS)?
Answer: > 100 µM

Question: And the TGI (NCI-H522 lung)?
Answer: > 100 µM

Question: And the TGI (NCI/ADR-RES ovarian)?
Answer: > 100 µM

Question: What about the TGI (MDA-MB-231 breast) of the same compound?
Answer: > 100 µM

Question: What about the TGI (SK-MEL-28 melanoma) of the same compound?
Answer: > 100 µM

Question: What about the TGI (SN12C renal) of the same compound?
Answer: > 100 µM

Question: And the TGI (KM12 colon)?
Answer: > 100 µM

Question: What about the TGI (RPMI-8226 leukemia) of the same compound?
Answer: > 100 µM

Question: And the TGI (786-0 renal)?
Answer: > 100 µM

Question: What about the TGI (HOP-92 NSCLC) of the same compound?
Answer: > 100 µM

Question: What about the TGI (UO-31 renal) of the same compound?
Answer: > 100 µM

Question: And the TGI (CCRF-CEM leukemia)?
Answer: 73.7 µM

Question: And the TGI (HT29 colon)?
Answer: > 100 µM

Question: What about the TGI (SR leukemia) of the same compound?
Answer: > 100 µM

Question: And the TGI (MCF7 breast)?
Answer: > 100 µM

Question: What about the TGI (MALME-3M melanoma) of the same compound?
Answer: > 100 µM

Question: What about the TGI (OVCAR-8 ovarian) of the same compound?
Answer: > 100 µM

Question: What about the TGI (TK-10 renal) of the same compound?
Answer: > 100 µM

Question: And the TGI (ACHN renal)?
Answer: > 100 µM

Question: And the TGI (SK-MEL-5 melanoma)?
Answer: > 100 µM

Question: And the TGI (CAKI-1 renal)?
Answer: > 100 µM

Question: What about the TGI (UACC-257 melanoma) of the same compound?
Answer: > 100 µM

Question: What about the TGI (MDA-N) of the same compound?
Answer: 45.7 µM

Question: What about the TGI (OVCAR-3 ovarian) of the same compound?
Answer: > 100 µM

Question: And the TGI (COLO 205 colon)?
Answer: > 100 µM

Question: What about the TGI (NCI-H226 lung) of the same compound?
Answer: > 100 µM

Question: And the TGI (BT-549 breast)?
Answer: > 100 µM

Question: And the TGI (SK-MEL-2 melanoma)?
Answer: > 100 µM

Question: What about the TGI (MOLT-4 leukemia) of the same compound?
Answer: > 100 µM

Question: What about the TGI (OVCAR-5 ovarian) of the same compound?
Answer: > 100 µM

Question: And the TGI (SK-OV-3 ovarian)?
Answer: > 100 µM

Question: What about the TGI (OVCAR-4 ovarian) of the same compound?
Answer: > 100 µM
